Assay results: patent US20210108197A1, “SHRNA EXPRESSION CASSETTE, POLY[…] CARRYING SAME, AND APPLICATION THEREOF” (priority 2017, published 2021)

Tests used:
HBV [1] = assay: In vivo pharmacodynamic experiment, HBsAg in serum; set-up: species or system HBV transgenic BALB/c; details: intravenous injection, LAM 150 mg/kg, ETV 3.2 mg/kg, intron2 3 × 10^10, intron5 1.5 × 10^11 vg/animal, relative, D 0 = 1
Protocol: (§1) Two drugs having two structures scAAV2/8-H1-shRNA2-intron2 and scAAV2/8-H1-shRNA2-intron5 were compared with the commercial drugs lamivudine and entecavir for evaluating in vivo efficacy. The administration mode was intravenous injection, and 14 days was a blood collection period. After separating serum samples, HBsAg and HBV DNA were detected. The grouping of animal experiments is shown as follows:
(§2) The experiment was conducted for total of […] (38 weeks). For the experimental method, see Example 2 “4. Expression and detection of target gene” The detection results are shown in FIG. 40 and Table 2-12 (BsAg detection), and FIG. 41 and Table 2-13 (BV DNA detection).

HBV [2] = assay: In vivo pharmacodynamic experiment, HBV DNA in serum; set-up: species or system HBV transgenic BALB/c; details: intravenous injection, LAM 150 mg/kg, ETV 3.2 mg/kg, intron2 3 × 10^10, intron5 1.5 × 10^11 vg/animal, relative, D 0 = 1
Protocol: as §1, §2

SMILES: C=C1[C@H](CO)[C@@H](O)C[C@@H]1n1cnc2c(=O)[nH]c(N)nc21 [ETV, Entecavir]
- HBsAg detection in serum, D 0 (HBV [1]): 1
- HBsAg detection in serum, D 14 (HBV [1]): 1.51
- HBsAg detection in serum, D 28 (HBV [1]): 1.55
- HBsAg detection in serum, D 35 (HBV [1]): 1.8
- HBsAg detection in serum, D 49 (HBV [1]): 1.4
- HBsAg detection in serum, D 70 (HBV [1]): 1.33
- HBsAg detection in serum, D 98 (HBV [1]): 1.34
- HBsAg detection in serum, D 126 (HBV [1]): 1.48
- HBsAg detection in serum, D 154 (HBV [1]): 0.75
- HBsAg detection in serum, D 182 (HBV [1]): 0.81
- HBsAg detection in serum, D 210 (HBV [1]): 1.57
- HBsAg detection in serum, D 238 (HBV [1]): 0.83
- HBsAg detection in serum, D 266 (HBV [1]): 0.94
- HBV DNA detection in serum, D 0 (HBV [2]): 1
- HBV DNA detection in serum, D 14 (HBV [2]): 8.68
- HBV DNA detection in serum, D 28 (HBV [2]): 1.24
- HBV DNA detection in serum, D 35 (HBV [2]): 1.08
- HBV DNA detection in serum, D 49 (HBV [2]): 1.25
- HBV DNA detection in serum, D 70 (HBV [2]): 3.93
- HBV DNA detection in serum, D 98 (HBV [2]): 1.05
- HBV DNA detection in serum, D 126 (HBV [2]): 0.72
- HBV DNA detection in serum, D 154 (HBV [2]): 1.06
- HBV DNA detection in serum, D 182 (HBV [2]): 3.33
- HBV DNA detection in serum, D 210 (HBV [2]): 5.5
- HBV DNA detection in serum, D 238 (HBV [2]): 2.96
- HBV DNA detection in serum, D 266 (HBV [2]): 1.55

SMILES: Nc1ccn([C@@H]2CS[C@H](CO)O2)c(=O)n1 [LAM, Lamivudine]
- HBsAg detection in serum, D 0 (HBV [1]): 1
- HBsAg detection in serum, D 14 (HBV [1]): 0.98
- HBsAg detection in serum, D 28 (HBV [1]): 0.96
- HBsAg detection in serum, D 35 (HBV [1]): 1.23
- HBsAg detection in serum, D 49 (HBV [1]): 1.21
- HBsAg detection in serum, D 70 (HBV [1]): 1.01
- HBsAg detection in serum, D 98 (HBV [1]): 1.19
- HBsAg detection in serum, D 126 (HBV [1]): 1.46
- HBsAg detection in serum, D 154 (HBV [1]): 0.66
- HBsAg detection in serum, D 182 (HBV [1]): 0.76
- HBsAg detection in serum, D 210 (HBV [1]): 1.16
- HBsAg detection in serum, D 238 (HBV [1]): 0.5
- HBsAg detection in serum, D 266 (HBV [1]): 0.54
- HBV DNA detection in serum, D 0 (HBV [2]): 1
- HBV DNA detection in serum, D 14 (HBV [2]): 0.69
- HBV DNA detection in serum, D 28 (HBV [2]): 0.87
- HBV DNA detection in serum, D 35 (HBV [2]): 0.72
- HBV DNA detection in serum, D 49 (HBV [2]): 0.68
- HBV DNA detection in serum, D 70 (HBV [2]): 1.26
- HBV DNA detection in serum, D 98 (HBV [2]): 0.41
- HBV DNA detection in serum, D 126 (HBV [2]): 0.24
- HBV DNA detection in serum, D 154 (HBV [2]): 0.56
- HBV DNA detection in serum, D 182 (HBV [2]): 0.8
- HBV DNA detection in serum, D 210 (HBV [2]): 0.28
- HBV DNA detection in serum, D 238 (HBV [2]): 0.26
- HBV DNA detection in serum, D 266 (HBV [2]): 0.07
